What was measured:
[1] = test system: immune cell subpopulations in blood and tumors; experiment: Flow cytometric analysis of immune cell subpopulations in blood and tumors, B16 model with anti-PD-1 antibody; assay type: in vivo, C57BL/6J mice
Procedure: (§1) A cell suspension of 3×10^5 mouse melanoma cell line B16 (presented by PerkinElmer) was injected subcutaneously into C57BL/6J mice (female, 6-8 weeks old, purchased from Jinan Pengyue Experimental Animal Company). The administration experiments were performed about 4 days after implantation when B16 tumors have grown to be palpable. Mice were divided into four groups and treated with vehicle or β-1,3/1,6-glucan (4 mg/kg, i.v., twice a week) alone, or in combination with anti-PD-1 antibody (anti-mouse PD-1 antibody purchased from BioxCell, 200 μg per mouse, i.v., once a week). Tumor volumes were evaluated and tumor weights were recorded. After sacrifice of mice, blood and tumor samples were collected for flow cytometric analysis.
Blood samples were collected by cardiac puncture, collected into EDTA-anticoagulation tubes. 50 μl of whole blood was taken for blood analysis, 50 μl of whole blood was taken for erythrocyte lysis (erythrocyte lysis buffer, Meltenyi), and the remaining whole blood was centrifuged at 3500 rpm for 7 min and the plasma was taken and stored at −80° C. Spleens and thymus were weighed for recording. Subcutaneous tumors of mice, about 0.2-0.5 g of tumors tissues, were taken, and single cell suspensions from the tumor samples were obtained by Mouse Tumor Dissociation Kit (Meltenyi). The blood cells after erythrocyte lysis as well as the dissociated tumor cell suspensions were subjected to subsequent processing, as well as flow cytometric detection
The single-cell suspensions were blocked with blocking buffer (20% FBS, 1:100 CD16/CD32 antibody and 1:100 rat IgG) for 20 min, and incubated and stained with the corresponding immune cell surface protein antibodies (CD11 b-PE, CD4-BV510, CD8-PerCP-Cy5.5, CD19-APC, CD3-FITC, CD206-PE-Cy7, Ly6C-APC) for 30 minutes at 4° C. Analysis of immune cell population ratios was performed by FACS
Arial III (BD Biosciences). The specific procedure was delineating the cell population in the FSC/SSC quadrant, delineating single cell population by FSC-H and FSC-A, and delineating corresponding immune cells by immune cell surface markers, and calculating the cell ratio or relative concentration.
(§2) Combination treatment also upregulates pro-inflammatory monocyte-derived macrophages (CD11b+Ly6Chi, FIG. 1E) in the peripheral blood. […] In addition, it was detected that the combination application of β-1,3/1,6-glucan and PD-1 antibodies enhances the percentage of CD4 and CD8 T cells in the blood and tumor (FIG. 2). It was shown that β-1,3/1,6-glucan and anti-PD-1 antibodies synergistically increase tumor infiltration of pro-inflammatory macrophages, decrease the percentage of immunosuppressive TAM, and increase the ratio of acquired immune cells T and B cells, resulting in building up a more pro-inflammatory and anti-tumoral tumor microenvironment.

[2] = test system: lymphocytes in peripheral blood; experiment: Relative lymphocyte concentration in peripheral blood by FACS, B16 model with anti-PD-1 antibody; assay type: in vivo, C57BL/6J mice; details: 8 mg/kg β-1,3/1,6-glucan combined with PD-1 antibody, versus PD-1 antibody alone; FIG. 4
Procedure: as §1, with “Mice were divided into four groups and treated with vehicle or β-1,3/1,6-glucan (4 mg/kg, i.v., twice a week) alone, or in combination with anti-PD-1 antibody (anti-mouse PD-1 antibody purchased from BioxCell, 200 μg per mouse, i.v., once a week).” left out
The experimental method was the same as in Example 1. On day 14, blood was taken from the heart after animal sacrificed, and placed in EDTA-anticoagulation tubes. After mixing, 50 μl of whole blood was taken. 5 μl of GFP microspheres were added to each sample for erythrocyte lysis.
(§3) The single-cell suspensions were blocked with blocking buffer (20% FBS, 1:100 CD16/CD32 antibody and 1:100 rat IgG) for 20 min, and incubated and staining with the corresponding immune cell surface protein antibodies (CD4-BV510, CD8-PerCP-Cy5.5, CD19-APC, CD3-FITC) for 30 minutes at 4° C. Analysis of immune cell population ratios was performed by FACS Arial III (BD Biosciences). The specific procedure was delineating the cell population in the FSC/SSC quadrant, delineating the single cell population by FSC-H and FSC-A, and delineating the corresponding immune cells by immune cell surface markers, and calculating the relative immune cell concentration.

platelets = experiment: Platelet concentration by hematology analyzer, B16 model with anti-PD-1 antibody; assay type: in vivo, C57BL/6J mice; details: blood day 14, FIG. 3
[3] = test system: mouse melanoma cell line B16; experiment: B16 syngeneic tumor model, β-1,3/1,6-glucan with anti-PD-1 antibody: tumor volume, tumor weight, body weight; assay type: in vivo
Procedure: as §1, §2

leukocytes = experiment: Immune cell concentration by hematology analyzer, B16 model after radiotherapy; assay type: in vivo, C57BL/6J mice; details: local radiotherapy 10 Gy, glucan by tail vein once a week, FIGS. 8-15
Procedure: A cell suspension of 3×10^5 mouse melanoma cell line B16 (presented by PerkinElmer) was injected subcutaneously into C57BL/6J mice (female, 6-8 weeks old, purchased from Jinan Pengyue Experimental Animal Company)(Overwijk & Restifo, 2001). About 5 days after tumor implantation, local radiotherapy (tumor injection area, 10 Gy) was applied. On day 6 and day 14, vehicle or β-1,3/1,6-glucan was administered (tail vein injection, once a week), and on day 17, after the animals were sacrificed, tumor weight was measured. Blood was taken from the heart after animal sacrificed, placed into EDTA-anticoagulation tubes. After mixing, 50 μl of whole blood was taken and the immune cell concentration was measured by a hematology analyzer.

[4] = test system: mouse melanoma cell line B16; experiment: B16 syngeneic tumor model after local radiotherapy: tumor volume, tumor weight; assay type: in vivo, C57BL/6J mice; details: local radiotherapy 10 Gy day 5; glucan by tail vein once a week (day 6, day 14); sacrificed day 17; FIGS. 5-7
Procedure: A cell suspension of 3×10^5 mouse melanoma cell line B16 (presented by PerkinElmer) was injected subcutaneously into C57BL/6J mice (female, 6-8 weeks old, purchased from Jinan Pengyue Experimental Animal Company)(Overwijk & Restifo, 2001). About 5 days after tumor implantation, local radiotherapy (tumor injection area, 10 Gy) was applied. On day 6 and day 14, vehicle or β-1,3/1,6-glucan was administered (tail vein injection, once a week), during this period, tumor volume and mouse body weight were measured, and on day 17, after the animals were sacrificed, tumor weight was measured.

[5] = test system: CD4, CD8 and CD19 cells in peripheral blood; experiment: Relative CD4, CD8, CD19 cell concentration in peripheral blood by FACS, B16 model after radiotherapy; assay type: in vivo, C57BL/6J mice; details: 8 mg/kg β-1,3/1,6-glucan after radiotherapy, FIG. 16
Procedure: On day 14, blood was taken from the heart after animals were sacrificed, and placed in EDTA-anticoagulation tubes. After mixing, 50 μl of whole blood was taken. 5 μl of GFP microspheres were added to each sample for erythrocyte lysis.
as §3, with “CD19-APC)” for “CD19-APC, CD3-FITC)”, “Anal” for “Arial”

leukocytes and platelets = experiment: Leukocytes and platelets by hematology analyzer, B16 model with carboplatin chemotherapy; assay type: in vivo, C57BL/6J mice; details: BG136 4 mg/kg tail vein with carboplatin 30 mg/kg i.p. twice a week; day 15; FIGS. 17-21
Procedure: (§4) A cell suspension of 3×10^5 mouse melanoma cell line B16 (presented by PerkinElmer) was injected subcutaneously into C57BL/6J mice (females, 6-8 weeks old, purchased from Jinan Panyue Experimental Animal Company) (Overwijk & Restifo, 2001). About 2 days after tumor implantation, carboplatin (30 mg/kg, twice a week) was injected intraperitoneally and BG136 (4 mg/kg) or lentinan LNT (2 mg/kg) was injected via the tail vein, and tumor volume were measured during administration, and on day 15, after animals were sacrificed, tumor weight was measured. Blood was taken from the heart after animals were sacrificed, placed in EDTA-anticoagulation tubes. After mixing, 50 μl of whole blood was taken and the immune cell concentration was measured by a hematology analyzer.

[6] = test system: mouse melanoma cell line B16; experiment: B16 syngeneic tumor model with carboplatin chemotherapy: tumor volume, tumor weight; assay type: in vivo, C57BL/6J mice; details: BG136 4 mg/kg tail vein with carboplatin 30 mg/kg i.p. twice a week; sacrificed day 15; FIGS. 17-21
Procedure: as §4

[7] = combination with PD-1 antibody, FIG. 2
[8] = combination with anti-PD-1 antibody, flow cytometry, FIG. 1D
[9] = combination with anti-PD-1 antibody, within the tumor, FIG. 1F

β-1,3/1,6-glucan
percentage of immunosuppressive tumor-associated macrophages TAM (CD11b+CD206+) ([1]; combination treatment compared with anti-PD-1 antibody alone, within the tumor, FIG. 1G): reduced
percentage of CD4 T cells in the blood and tumor [1, 7]: enhances
percentage of CD8 T cells in the blood and tumor [1, 7]: enhances
pro-inflammatory monocyte-derived macrophages (CD11b+Ly6Chi) in the peripheral blood ([1]; combination with anti-PD-1 antibody, FIG. 1E): upregulates
percentage of CD11b+ cells in the blood [1, 8]: decreases
percentage of CD19+ cells in the blood [1, 8]: increases
tumor infiltration of myeloid cells (CD11b+) [1, 9]: more infiltration
tumor infiltration of pro-inflammatory macrophages (CD11b+Ly6Chi) [1, 9]: more infiltration
relative concentration of CD3 in blood [2]: further increase
relative concentration of CD4 in blood [2]: further increase
relative concentration of CD8 in blood [2]: further increase
relative concentration of CD19 in blood [2]: further increase
platelet concentration (platelets; single agent alone): does not affect
platelet concentration, platelet-lowering side effect of PD-1 antibody (platelets; β-1,3/1,6-glucan in combination with PD-1 antibody): reverses the platelet-lowering side effect
body weight and death of mice during treatment ([3]; combination of β-1,3/1,6-glucan 4 mg/kg and anti-PD-1 antibody 200 μg/mouse, FIG. 1C): no significant changes
tumor growth inhibition, combination versus single treatment ([3]; β-1,3/1,6-glucan 4 mg/kg i.v. twice a week combined with anti-PD-1 antibody 200 μg/mouse i.v. once a week, FIG. 1A, 1B): more effectively inhibits tumor growth than single treatment
anti-PD-1 antibody-induced tumor regression ([3]; β-1,3/1,6-glucan 4 mg/kg i.v. twice a week combined with anti-PD-1 antibody 200 μg/mouse i.v. once a week, sacrificed day 14, FIG. 1A, 1B): enhances anti-PD-1 antibody-induced tumor regression
concentration of immune cells in blood after radiotherapy (leukocytes): increasing the concentration of immune cells
anti-tumor effect in combination with radiotherapy (tumor volume, tumor weight) [4]: enhances the anti-tumor effect of radiotherapy
cell concentration of CD4 after radiotherapy [5]: increases
cell concentration of CD8 after radiotherapy [5]: increases
cell concentration of CD19 after radiotherapy [5]: increases
decrease in platelets after carboplatin administration (leukocytes and platelets): reverses
immune response / immunosuppression after carboplatin administration (immune cell concentration) (leukocytes and platelets): reverses the immunosuppression
tumor suppressive effect in combination with carboplatin [6]: enhances the tumor suppressive effect of carboplatin

Source: US12357654B2, “Application of glucan in preparation of drug” (Qingdao Conson Pharmaceutical Co., Ltd., priority 2019, dated 2025)
